From patent US11702404B2, “GLP-1R modulating compounds” (priority 2019, dated 2023)

Biological target: GLP-1R (Homo sapiens, UniProt P43220)
Assay: GLP-1R activation: cAMP increase in CHO cells stably expressing GLP-1R
Type: cell-based
Settings: cAMP increase, CHO cells stably expressing GLP-1R, 10 point dose response, 30 minutes incubation; read-out: EC50

Sequence of GLP-1R (P43220 24-463): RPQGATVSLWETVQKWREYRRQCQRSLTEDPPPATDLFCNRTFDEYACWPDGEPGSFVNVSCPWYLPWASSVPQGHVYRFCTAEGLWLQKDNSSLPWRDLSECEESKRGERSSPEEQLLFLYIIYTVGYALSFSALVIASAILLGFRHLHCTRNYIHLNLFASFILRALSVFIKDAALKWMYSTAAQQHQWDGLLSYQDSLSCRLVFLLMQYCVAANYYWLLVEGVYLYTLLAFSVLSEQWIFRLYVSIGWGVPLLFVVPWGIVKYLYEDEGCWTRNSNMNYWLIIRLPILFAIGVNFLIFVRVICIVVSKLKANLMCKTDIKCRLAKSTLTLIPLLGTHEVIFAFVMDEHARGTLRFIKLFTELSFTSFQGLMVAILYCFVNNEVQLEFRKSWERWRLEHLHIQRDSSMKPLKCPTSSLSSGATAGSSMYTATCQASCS

EC50 [nM]	Compound
2.7	CC(C)(CF)Cn1c(Cc2ccc(-c3cccc(OCc4ccc(C#N)cc4F)n3)cc2F)nc2ccc(C(=O)O)cc21 [Example 11, 2-(4-(6-((4-cyano-2-fluorobenzyl)oxy)pyridin-2-yl)-2-fluorobenzyl)-1-(3-fluoro-2,2-dimethylpropyl)-1H-benzo[d]imidazole-6-carboxylic acid]
1.77	CC(C)(Cn1c(Cc2ccc(-c3cccc(OCc4ccc(C#N)cc4F)n3)cc2F)nc2ccc(C(=O)O)cc21)C(F)F [Example 12, 2-(4-(6-((4-cyano-2-fluorobenzyl)oxy)pyridin-2-yl)-2-fluorobenzyl)-1-(3,3-difluoro-2,2-dimethylpropyl)-1H-benzo[d]imidazole-6-carboxylic acid]
28.8	COCCn1c(Cc2ncc(-c3cccc(OCc4ccc(C#N)cc4F)n3)cn2)nc2ccc(C(=O)O)cc21 [Example 58, 2-((5-(6-((4-cyano-2-fluorobenzyl)oxy)pyridin-2-yl)pyrimidin-2-yl)methyl)-1-(2-methoxyethyl)-1H-benzo[d]imidazole-6-carboxylic acid]
20.7	COCCn1c(Cc2ccc(-c3cccc(OCc4ccc(C#N)c5c4OCCC5)n3)cc2F)nc2ccc(C(=O)O)cc21 [Example 144, 2-(4-(6-((5-cyanochroman-8-yl)methoxy)pyridin-2-yl)-2-fluorobenzyl)-1-(2-methoxyethyl)-1H-benzo[d]imidazole-6-carboxylic acid]
2040	COCCn1c(Cc2ccc(-c3cccc(OCc4cccc5c4OCCN5C)n3)cc2F)nc2ccc(C(=O)O)cc21 [Example 149, 2-(2-fluoro-4-(6-((4-methyl-3,4-dihydro-2H-benzo[b][1,4]oxazin-8-yl)methoxy)pyridin-2-yl)benzyl)-1-(2-methoxyethyl)-1H-benzo[d]imidazole-6-carboxylic acid]
3.35	COCCn1c(Cc2ccc(-c3cccc(OCc4ccc(C(F)F)cc4F)n3)cc2F)nc2ccc(C(=O)O)cc21 [Example 150, 2-(4-(6-((4-(difluoromethyl)-2-fluorobenzyl)oxy)pyridin-2-yl)-2-fluorobenzyl)-1-(2-methoxyethyl)-1H-benzo[d]imidazole-6-carboxylic acid]
7.93	COCCn1c(Cc2ccc(-c3cccc(OCc4ccc(Br)c5nsnc45)n3)cc2F)nc2ccc(C(=O)O)cc21 [Example 151, 2-(4-(6-((7-bromobenzo[c][1,2,5]thiadiazol-4-yl)methoxy)pyridin-2-yl)-2-fluorobenzyl)-1-(2-methoxyethyl)-1H-benzo[d]imidazole-6-carboxylic acid]
3960	COCCn1c(Cc2ccc(-c3cccnc3OCc3ccccc3)cc2F)nc2ccc(C(=O)O)cc21 [Example 183, 2-(4-(2-(benzyloxy)pyridin-3-yl)-2-fluorobenzyl)-1-(2-methoxyethyl)-1H-benzo[d]imidazole-carboxylic acid]
62.7	COCCn1c(Cc2ccc(-c3cccc(OCC(=O)c4ccc(OC)cc4)n3)cc2F)nc2ccc(C(=O)O)cc21 [Example 215, 2-(2-fluoro-4-(6-(2-(4-methoxyphenyl)-2-oxoethoxy)pyridin-2-yl)benzyl)-1-(2-methoxyethyl)-1H-benzo[d]imidazole-6-carboxylic acid]
14.3	COCCn1c(Cc2ccc(-c3cccc(OCc4cnc(Cl)nc4OC)n3)cc2F)nc2ccc(C(=O)O)cc21 [Example 227, 2-(4-(6-((2-chloro-4-methoxypyrimidin-5-yl)methoxy)pyridin-2-yl)-2-fluorobenzyl)-1-(2-methoxyethyl)-1H-benzo[d]imidazole-6-carboxylic acid]
0.15	COc1cc(Cl)ccc1COc1nccc(-c2cc(F)c(Cc3nc4ccc(C(=O)O)cc4n3CC3(CC#N)CC3)cc2F)n1 [Example 446, 2-(4-(2-((4-chloro-2-methoxybenzyl)oxy)pyrimidin-4-yl)-2,5-difluorobenzyl)-1-((1-(cyanomethyl)cyclopropyl)methyl)-1H-benzo[d]imidazole-6-carboxylic acid]
≥ 1000	NC(=O)c1ccc(COc2cc(-c3ccc(Cc4nc5ccc(C(=O)O)cc5[nH]4)c(F)c3)ccc2F)c(F)c1 [Example 469, 2-((3′-((4-carbamoyl-2-fluorobenzyl)oxy)-3,4′-difluoro-[1,1′-biphenyl]-4-yl)methyl)-1H-benzo[d]imidazole-6-carboxylic acid]
4250	COCCn1c(Cc2cc(F)c(-c3nc(OCc4ccc(C#N)cc4F)c(F)cc3F)cc2F)nc2ccc(C(=O)O)cc21 [Example 538, 2-(4-(6-((4-cyano-2-fluorobenzyl)oxy)-3,5-difluoropyridin-2-yl)-2,5-difluorobenzyl)-1-(2-methoxyethyl)-1H-benzo[d]imidazole-6-carboxylic]
255	CO[C@H]1C[C@@H](n2c(Cc3cc(F)c(-c4cccc(OCc5ccc(C#N)cc5F)n4)cc3F)nc3ccc(C(=O)O)cc32)C1 [Example 566, 2-(4-(6-((4-cyano-2-fluorobenzyl)oxy)pyridin-2-yl)-2,5-difluorobenzyl)-1-((1s,3s)-3-methoxycyclobutyl)-1H-benzo[d]imidazole-6-carboxylic acid]
0.23	N#Cc1ccc(COc2cccc(-c3cc(F)c(Cc4nc5c(F)cc(C(=O)O)cc5n4Cc4ncco4)cc3F)n2)c(F)c1 [Example 584, 2-(4-(6-((4-cyano-2-fluorobenzyl)oxy)pyridin-2-yl)-2,5-difluorobenzyl)-4-fluoro-1-(oxazol-2-ylmethyl)-1H-benzo[d]imidazole-6-carboxylic acid]
3190	COCCn1c(Cc2ccc(-c3cccc(OCc4nnc(Cl)s4)n3)cc2F)nc2ccc(C(=O)O)cc21 [Example 590, 2-(4-(6-((5-chloro-1,3,4-thiadiazol-2-yl)methoxy)pyridin-2-yl)-2-fluorobenzyl)-1-(2-methoxyethyl)-1H-benzo[d]imidazole-6-carboxylic acid]
1.48	N#Cc1ccc(COc2nccc(-c3ccc(Cc4nc5c(F)cc(C(=O)O)cc5n4Cc4ncco4)cc3F)n2)c(F)c1 [Example 618]
1.18	N#Cc1ccc(COc2cccc(-c3cc(F)c(Cc4nc5ccc(C(=O)O)cc5n4CC4(CO)CC4)cc3F)n2)c(F)c1 [Example 637]
22.6	CC12COC(Cn3c(Cc4cc(F)c(-c5cccc(OCc6ccc(C#N)cc6F)n5)cc4F)nc4ccc(C(=O)O)cc43)(C1)C2 [Example 741]
0.08	O=C(O)c1ccc2nc(Cc3cc(F)c(-c4nc(OCc5ccc(C(F)F)cc5F)ccc4F)cc3F)n(C[C@@H]3CCO3)c2c1 [Example 787]
4.55	COCCn1c(Cc2cc(F)c(-c3cccc(OCc4ccc(C#N)cc4F)n3)c(F)c2F)nc2ccc(C(=O)O)cc21 [Example 856, 2-(4-(6-((4-cyano-2-fluorobenzyl)oxy)pyridin-2-yl)-2,3,5-trifluorobenzyl)-1-(2-methoxyethyl)-1H-benzo[d]imidazole-6-carboxylic acid]
3.71	COCCn1c(Cc2cc(F)c(-c3cccc(OCc4ccc(C(F)(F)F)s4)n3)cc2F)nc2ccc(C(=O)O)cc21 [Example 864]
69.5	COC1(Cn2c(Cc3cc(F)c(-c4cccc(OCc5ccc(C#N)cc5F)n4)cc3F)nc3ccc(C(=O)O)cc32)CN(C(=O)C2CC2)C1 [Example 889, 2-(4-(6-((4-cyano-2-fluorobenzyl)oxy)pyridin-2-yl)-2,5-difluorobenzyl)-1-((1-(cyclopropanecarbonyl)-3-methoxyazetidin-3-yl)methyl)-1H-benzo[d]imidazole-6-carboxylic acid]

Tested on: not listed separately
Assay: Microsomal stability, human liver microsomes (predicted hepatic clearance)
Settings: predicted from in vitro microsomal stability data

Predicted Hepatic Clearance (Pred. Cl.) [mL/min/kg]	Compound
5.17	N#Cc1ccc(COc2cccc(-c3ccc(Cc4nc5ccc(C(=O)O)cc5n4CC4CCO4)c(F)c3)n2)c(F)c1 (single isomer, unassigned) [Example 67, 2-(4-(6-((4-Cyano-2-fluorobenzyl)oxy)pyridin-2-yl)-2-fluorobenzyl)-1-(oxetan-2-ylmethyl)-1H-benzo[d]imidazole-6-carboxylic acid]
<1.83	N#Cc1ccc(COc2cccc(-c3ccc(Cc4nc5ccc(C(=O)O)cc5n4CC4CCO4)c(F)c3)n2)c(F)c1 (single isomer, unassigned) [Example 68, 2-(4-(6-((4-Cyano-2-fluorobenzyl)oxy)pyridin-2-yl)-2-fluorobenzyl)-1-(oxetan-2-ylmethyl)-1H-benzo[d]imidazole-6-carboxylic acid]
6	COCCn1c(C(C)c2ccc(-c3cccc(OCc4ccc(C#N)cc4F)n3)cc2)nc2ccc(C(=O)O)cc21 (single isomer, unassigned) [Example 439, 2-(1-(4-(6-((4-cyano-2-fluorobenzyl)oxy)pyridin-2-yl)phenyl)ethyl)-1-(2-methoxyethyl)-1H-benzo[d]imidazole-6-carboxylic acid]
3.3	N#Cc1ccc(COc2cccc(-c3ccc(Cc4nc5ccc(C(=O)O)cc5n4CC4CCO4)c(F)c3)n2)c(F)c1 (stereo not drawn) [Example 15, 2-(4-(6-((4-cyano-2-fluorobenzyl)oxy)pyridin-2-yl)-2-fluorobenzyl)-1-(oxetan-2-ylmethyl)-1H-benzo[d]imidazole-6-carboxylic acid]
7	COCCn1c(Cn2cc(-c3csc(OCc4ccc(C#N)cc4F)n3)cn2)nc2ccc(C(=O)O)cc21 [Example 78, 2-((4-(2-((4-cyano-2-fluorobenzyl)oxy)thiazol-4-yl)-1H-pyrazol-1-yl)methyl)-1-(2-methoxyethyl)-1H-benzo[d]imidazole-6-carboxylic acid]
2.33	COCCn1c(Cc2ccc(-c3cc(-c4cnn(C)c4)cc(OCc4ccc(C#N)cc4F)n3)cc2F)nc2ccc(C(=O)O)cc21 [Example 99, 2-(4-(6-((4-cyano-2-fluorobenzyl)oxy)-4-(1-methyl-1H-pyrazol-4-yl)pyridin-2-yl)-2-fluorobenzyl)-1-(2-methoxyethyl)-1H-benzo[d]imidazole-6-carboxylic acid]
<1.83	COCCn1c(Cc2ccc(-c3cc(C#Cc4ccccc4)cc(OCc4ccc(C#N)cc4F)n3)cc2F)nc2ccc(C(=O)O)cc21 [Example 100, 2-(4-(6-((4-cyano-2-fluorobenzyl)oxy)-4-(phenylethynyl)pyridin-2-yl)-2-fluorobenzyl)-1-(2-methoxyethyl)-1H-benzo[d]imidazole-6-carboxylic acid]
